Here are results for two compounds from publication PMC9328650 (British Journal of Pharmacology, 2021).

Each structure is given as a SMILES string.

One data set concerns the target PDI (Homo sapiens, UniProt P07237). The data set can be described thus: Insulin turbidity assay, PDI. It is filed as biochemical. The note with it: for Effect on enzyme activity of PDI: 300 μM, highest concentration tested. How it is done:
(§1) Initial compound library screening was performed in an insulin turbidity assay adapted for high‐throughput screening (Holmgren, [1979]; Smith et al., [2004]). The reduction of the disulphide bond in insulin by a thiol isomerase results in the separation of the A and B chains and precipitation, which is measured by spectrophotometry at a wavelength of 650 nm. Using Corning 3891 well plates (with a final volume of 10 μl), a final concentration of 10 μg·ml^−1 of ERp57, 125‐μM insulin and 2‐mM EDTA in potassium phosphate buffer (100 mM) was added to each experimental well. Bacitracin (3 mM) was added to select wells as a positive control and vehicle plates served as a negative control. Experimental compounds were pin transferred to the wells at a final concentration of 30 μM and plates shaken. After incubation for 10 min, 0.3‐mM DTT was added to propagate enzyme activity. Following reaction for 1 hr at 37°C, plates were read using a PerkinElmer Envision plate reader (PerkinElmer, Waltham, MA). All compounds were tested in duplicate at the ICCB‐Longwood Screening Facility at Harvard Medical School.
(§2) Lead compounds were diluted in a 6‐point dose curve (concentrations depending on the observed effects in the initial screen) and insulin turbidity was measured kinetically each minute for 75 min using a Spectramax M3 microplate reader (Molecular Devices, Sunnyvale, CA). Specificity assay also utilised the insulin turbidity assay to determine specificity of inhibition; ERp57 was replaced with PDI (10 μg·ml^−1), ERp5 (30 μg·ml^−1), ERp72 (10 μg·ml^−1) or thioredoxin (10 μg·ml^−1), to determine the ability of lead compounds to inhibit these enzymes.
(§3) A total of 3,641 compounds were screened for inhibitory effects on the redox activity of ERp5, protein disulphide isomerase (PDI), ERp57, ERp72 and thioredoxin (TRX), all assayed at 10 μg·ml^−1 except ERp5 which was assayed at 30 μg·ml^−1. ZFL was selected for further investigation. […] (a) Enzyme assays performed in the absence of enzyme with drug only.

The target of a further data set is T1, ERp57 (Homo sapiens, UniProt P30101).
T1 sequence (P30101 25-505): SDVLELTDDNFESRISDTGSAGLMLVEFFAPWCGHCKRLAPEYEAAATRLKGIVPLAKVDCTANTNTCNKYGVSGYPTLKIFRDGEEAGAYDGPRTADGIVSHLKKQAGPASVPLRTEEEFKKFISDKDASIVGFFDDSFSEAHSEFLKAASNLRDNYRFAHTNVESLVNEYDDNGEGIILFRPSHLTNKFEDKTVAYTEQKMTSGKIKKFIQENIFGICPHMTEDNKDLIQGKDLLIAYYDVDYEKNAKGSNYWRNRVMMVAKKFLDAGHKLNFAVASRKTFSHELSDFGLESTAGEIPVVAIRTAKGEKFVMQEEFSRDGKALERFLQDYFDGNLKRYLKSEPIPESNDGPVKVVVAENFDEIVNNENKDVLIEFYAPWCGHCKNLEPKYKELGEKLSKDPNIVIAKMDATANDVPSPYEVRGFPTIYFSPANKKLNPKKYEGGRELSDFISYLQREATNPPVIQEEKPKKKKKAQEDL
The data set can be described thus: Insulin turbidity assay, ERp57. In kind it is biochemical. Particulars: for Effect on enzyme activity of ERp57: 300 μM, highest concentration tested. How it is done:
as §1, §2, §3

The target in the next data set is T2, thioredoxin (TRX) (Homo sapiens, UniProt P10599).
T2 sequence (P10599 1-105): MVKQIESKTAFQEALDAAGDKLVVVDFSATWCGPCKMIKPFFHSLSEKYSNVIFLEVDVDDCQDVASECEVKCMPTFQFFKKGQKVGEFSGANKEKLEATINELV
Briefly: Insulin turbidity assay, thioredoxin. In kind it is biochemical. Particulars: for Effect on enzyme activity of thioredoxin: 300 μM, highest concentration tested. How it is done:
as §1, §2, §3

The target in the next data set is T3, ERp72 (Homo sapiens, UniProt P13667).
T3 sequence (P13667 21-645): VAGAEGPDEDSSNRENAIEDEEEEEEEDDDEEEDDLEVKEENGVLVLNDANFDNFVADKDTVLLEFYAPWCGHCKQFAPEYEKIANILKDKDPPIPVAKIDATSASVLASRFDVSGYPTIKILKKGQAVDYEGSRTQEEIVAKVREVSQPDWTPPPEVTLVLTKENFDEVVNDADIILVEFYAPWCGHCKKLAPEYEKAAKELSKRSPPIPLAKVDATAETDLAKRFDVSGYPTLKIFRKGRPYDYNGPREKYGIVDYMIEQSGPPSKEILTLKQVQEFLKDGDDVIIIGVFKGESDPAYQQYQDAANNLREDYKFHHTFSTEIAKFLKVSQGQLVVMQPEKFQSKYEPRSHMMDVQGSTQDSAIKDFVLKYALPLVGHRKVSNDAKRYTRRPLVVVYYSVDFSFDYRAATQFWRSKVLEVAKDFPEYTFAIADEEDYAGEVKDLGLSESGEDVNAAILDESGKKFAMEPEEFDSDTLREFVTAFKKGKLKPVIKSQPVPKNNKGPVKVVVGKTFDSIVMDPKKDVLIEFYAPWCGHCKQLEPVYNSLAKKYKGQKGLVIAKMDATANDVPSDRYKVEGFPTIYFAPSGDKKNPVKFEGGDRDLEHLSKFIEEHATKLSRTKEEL
The data set can be described thus: Insulin turbidity assay, ERp72. The note with it: ERp72 10 μg·ml^−1, 650 nm, 37°C. It is filed as biochemical. How it is done: as §1
(§4) Lead compounds were diluted in a 6‐point dose curve (concentrations depending on the observed effects in the initial screen) and insulin turbidity was measured kinetically each minute for 75 min using a Spectramax M3 microplate reader (Molecular Devices, Sunnyvale, CA). […]

Data set [1] deals with MDA-MB-231 cell-surface free thiols. Briefly: Cell-surface free thiol labelling with MPB, MDA-MB-231. In kind it is cell-based, human. Particulars: 20 μM, vs vehicle. How it is done:
(§5) MDA‐MB‐231 or HEK293T cells were cultured and treated as described before. Four hours post‐treatment, cells were washed with PBS, and free thiols labelled by incubation with MPB (100 μM) for 20 min. Free label was removed by multiple PBS washes, and cells were lysed in reducing sample treatment buffer for SDS‐PAGE analysis. Thiol labelling was detected using streptavidin‐HRP conjugate (1:10,000 dilution in 5% [w/v] BSA/TBS‐T), and chemiluminescence captured following the addition of ECL substrate.

For data set [2], the system named is haemostasis (bleeding time). Briefly: Tail bleeding assay. It is filed as in vivo, mouse. The note with it: 20 μM circulating concentration, femoral vein, 5 min before tail biopsy, n = 10; vehicle 225 s ± 28 s; not significant. How it is done:
(§6) Male C57BL/6J mice (RRID:IMSR_JAX:000664 bred in house, at age 4–5 weeks with a weight range of 19–25 g) were anaesthetised by intraperitoneal injection of ketamine (125 mg·kg^−1), xylazine (12.5 mg·kg^−1) and atropine (0.25 mg·kg^−1). Platelets were labelled by intravenous infusion of DyLight 649‐conjugated anti‐GPIb platelet labelling antibody (0.2 μg·g^−1 body weight). […] Thrombi were observed using an Olympus BX microscope (Olympus, Essex, UK) and a Hamamatsu (Hamamatsu Photonics, Hertfordshire, UK) CCD camera and data analysed using Slidebook Software version 5.0 (Intelligent Imaging Innovations, Denver, USA) (Falati et al., [2006]; Holbrook et al., [2018]; Holbrook et al., [2012]). Mice were killed using Schedule 1 approved methods at the end of the experiment. […] Time to bleeding cessation was recorded. […] Animal experiments were approved by the University of Reading Local Ethical Review Panel and authorised by the UK Home Office. […]
(§7) Following laser injury, images were recorded for 5 min. […] Graphs represent mean ± SEM, n = 10 per treatment; data were analysed by Student's t‐test, *P < 0.05

Data set [3] relates to HEK293T cells. Briefly: Proliferation assay, HEK293T. It is filed as cell-based, human. Particulars: 1–30 μM, 72 hr. How it is done:
(§8) MDA‐MB‐231 or HEK293T cells were seeded at a density of 2.5 × 10^5 cells per well in a six‐well cell culture plate and grown for 24 hr. […] Following drug treatment, wells were washed and cells manually counted by haemocytometer or automatically using a Coulter counter (Beckman Coulter, CA, USA). Cell growth inhibition was calculated by comparing the counts of drug treated cells with untreated (control) cells as described previously (Kennedy et al., [2007]).

Another data set addresses T4, ERp5 (Homo sapiens, UniProt Q15084).
T4 sequence (Q15084 20-440): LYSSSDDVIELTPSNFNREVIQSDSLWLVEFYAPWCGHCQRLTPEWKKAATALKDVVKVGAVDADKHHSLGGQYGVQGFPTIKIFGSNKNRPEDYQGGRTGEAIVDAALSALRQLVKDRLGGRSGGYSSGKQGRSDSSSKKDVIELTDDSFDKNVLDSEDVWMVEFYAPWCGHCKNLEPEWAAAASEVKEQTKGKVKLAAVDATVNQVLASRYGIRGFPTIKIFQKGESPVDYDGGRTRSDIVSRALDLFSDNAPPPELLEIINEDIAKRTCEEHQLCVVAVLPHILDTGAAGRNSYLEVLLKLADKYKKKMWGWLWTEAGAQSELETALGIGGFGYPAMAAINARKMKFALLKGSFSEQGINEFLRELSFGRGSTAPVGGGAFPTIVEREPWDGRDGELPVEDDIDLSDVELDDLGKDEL
The data set can be described thus: Insulin turbidity assay, ERp5. It is filed as biochemical. The note with it: ERp5 30 μg·ml^−1, 650 nm, 37°C. How it is done:
as §1, §4

Data set [4] concerns HEK293T cells. Briefly: Cell migration scratch assay, HEK293T. It is filed as cell-based, human. The note with it: 20 μM, 40 hr. How it is done: (§9) MDA‐MB‐231 (ATCC Cat# HTB‐26, RRID:CVCL_0062) or HEK293T (ATCC Cat# CRL‐3216, RRID:CVCL_0063) were seeded into wells of a 12‐well plate (fibronectin coated, 10 μg·ml^−1) and grown to confluence in DMEM supplemented with 10% (v/v) FBS and 1% (v/v) penicillin–streptomycin. Following aspiration of media, a vertical scratch was performed to bisect the well and detached cells were removed by PBS washes. […] Images were analysed using Zeiss Axiovision software, and closure areas calculated using Fiji ImageJ. At 37/40 hr post‐scratch, cells were fixed in 4% (v/v) paraformaldehyde for 20 min and permeabilised with 0.2% (v/v) Triton X‐100 for 10 min. Cells were stained with phalloidin‐568 (dilution of 1:250, in PBS) for 1 hr and following washes, counterstained with DAPI (1:1,000) for 20 min. Cells were washed in PBS and mounted using Vectashield H‐1000.

Details of data set [5]: method as in Fischer et al., [2000]. The note with it: oral 20 mg twice daily; ref Fischer et al., [2000]; cited from earlier work.
For the next data set, the system named is thrombus formation. Briefly: Laser injury arterial thrombus formation, cremaster muscle arterioles, intravital microscopy. In kind it is in vivo, mouse. The note with it: 20 μM circulating concentration, i.v., male C57BL/6J mice, n = 12 thrombi. How it is done: as §6, §7
Data set [6] concerns HEK293T cell-surface free thiols. Briefly: Cell-surface free thiol labelling with MPB, HEK293T. It is filed as cell-based, human. The note with it: 20 μM, vs vehicle. How it is done:
as §5

Data set [7] deals with MDA-MB-231 cells. The data set can be described thus: Cell migration scratch assay, MDA-MB-231. It is filed as cell-based, human. Particulars: 20 μM, 37 hr. How it is done:
as §9

The subject of data set [8] is MDA-MB-231 cells. Briefly: 3-day growth inhibition (proliferation) assay, MDA-MB-231. In kind it is cell-based, human. Particulars: 72 hr. How it is done: as §8

Chain of PDI (P07237 18-508, species assumed): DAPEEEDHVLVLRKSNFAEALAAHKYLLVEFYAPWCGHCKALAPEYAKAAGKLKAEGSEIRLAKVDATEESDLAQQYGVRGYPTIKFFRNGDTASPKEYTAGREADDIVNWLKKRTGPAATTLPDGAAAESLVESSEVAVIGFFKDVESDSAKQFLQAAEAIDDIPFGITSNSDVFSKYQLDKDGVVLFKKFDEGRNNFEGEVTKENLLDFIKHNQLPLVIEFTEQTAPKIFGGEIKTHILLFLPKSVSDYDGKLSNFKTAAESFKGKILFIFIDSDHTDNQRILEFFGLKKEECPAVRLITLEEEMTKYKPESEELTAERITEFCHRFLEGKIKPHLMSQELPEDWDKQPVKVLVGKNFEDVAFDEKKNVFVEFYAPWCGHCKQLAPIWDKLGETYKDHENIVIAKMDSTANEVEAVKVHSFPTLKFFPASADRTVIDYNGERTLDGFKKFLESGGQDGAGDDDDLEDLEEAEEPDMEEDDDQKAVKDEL

For `CC(C)(O)c1ccccc1CC[C@@H](SCC1(CC(=O)O)CC1)c1cccc(/C=C/c2ccc3ccc(Cl)cc3n2)c1` [montelukast], the “Effect on enzyme activity of PDI” value on PDI is “almost entirely ablate”. For the same compound, the “Effect on enzyme activity of ERp57” value on ERp57 was “almost entirely ablate”. In addition, the “Effect on enzyme activity of thioredoxin” value on thioredoxin (TRX) is “almost entirely ablate”.
Consider `COc1cc(C(=O)NS(=O)(=O)c2ccccc2C)ccc1Cc1cn(C)c2ccc(NC(=O)OC3CCCC3)cc12` [zafirlukast], for which the “Inhibition of ERp72 activity, concentration dependence” value on ERp72 was “concentration dependently inhibits”. The “Reduction of surface free thiol (MPB) labelling” value in data set [1] came out at 42%. This compound also returned a Bleeding time in data set [2] of 243 s. In addition, the “Effect on enzyme activity of PDI” value on PDI is on record as “almost entirely ablate”. Further, the “Inhibition of PDI activity, concentration dependence” value at PDI (PDI 10 μg·ml^−1, 650 nm, 37°C) was “concentration dependently inhibits”. Moreover, the “Impairment of cell proliferation” value with HEK293T cells [3] is listed as “not detected”. Also, at ERp5, the “Inhibition of ERp5 activity, concentration dependence” value was “concentration dependently inhibits”. The “Closure area at endpoint” value with HEK293T cells [4] (vehicle 80,686 [±15,705]) was 1,475,154 [±81,061]. Besides, in the data set with HEK293T cells [4] (vehicle over 96%), the “Scratch area coverage (migration) at endpoint” value is reported as 32%. Moreover, in [5], the “Peak plasma concentration (cMax)” value is 697 ng/mL; the “Peak plasma concentration, equivalent” value is 1.2 µM; the “Time of peak plasma concentration” value is 3 h. Further, the “Thrombus size (maximum fluorescence intensity)” value in the data set with thrombus formation is listed as “significantly impaired”. Further, the “Effect on enzyme activity of ERp57” value at ERp57 is listed as “almost entirely ablate”. The “Inhibition of ERp57 activity, concentration dependence” value on ERp57 (ERp57 10 μg·ml^−1, 650 nm, 37°C) is “concentration dependently inhibits”. Besides, the “Decrease of surface MPB labelling” value in data set [6] was determined as 47%. In addition, the “Closure area at endpoint” value in the data set with MDA-MB-231 cells [7] (vehicle 62,163 ± 23,552) is 243,707 ± 51,057. In the data set on MDA-MB-231 cells [7] (vehicle over 86%), the “Scratch area covered at endpoint” value stood at 56%. Besides, the “Effect on enzyme activity of thioredoxin” value at thioredoxin (TRX) was “almost entirely ablate”. The “Inhibition of thioredoxin (TRX) activity, concentration dependence” value at thioredoxin (TRX) (TRX 10 μg·ml^−1, 650 nm, 37°C) is given as “concentration dependently inhibits”. The “Effect on cell proliferation” value in the data set on MDA-MB-231 cells [8] (20 μM) was “minimal effect”. The Reduction of proliferation result in the data set with MDA-MB-231 cells [8] (30 μM) is “around 20%”.
